Laboratory results published in ChEMBL document CHEMBL1201862, “PubChem BioAssay data set” (2004).
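Values below derive from 48-hour exposures of cells grown in 96-well plates, with endpoints linearly interpolated between the two concentrations bracketing the appropriate inhibition level. Abbreviation: GI50, concentration required for 50% inhibition of growth.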 Activity calls are given as the source filed them. Cut-off read from the data, not from the text of the source: active = GI50 up to about 1.1 µM and inactive = higher.

Assays:
Experiment in all cases: NCI tumour cell line growth inhibition, 48 h
MDA-MB-231 = tested on: MDA-MB-231
NCI-H522 = tested on: NCI-H522
T47D = tested on: T47D
NCI-H23 = tested on: NCI-H23
SNB-19 = tested on: SNB-19
HOP-62 = tested on: HOP-62
SK-OV-3 = tested on: SK-OV-3
A549 = tested on: A549
SF-539 = tested on: SF-539
SF-295 = tested on: SF-295
CAKI-1 = tested on: CAKI-1
OVCAR-8 = tested on: OVCAR-8
SK-MEL-28 = tested on: SK-MEL-28
HT-29 = tested on: HT-29
SK-MEL-2 = tested on: SK-MEL-2
SNB-75 = tested on: SNB-75
MCF7 = tested on: MCF7
ACHN = tested on: ACHN
MDA-MB-435 = tested on: MDA-MB-435
NCI/ADR-RES = tested on: NCI/ADR-RES

Measured: GI50

CC(C)(C)C(=O)c1c(O)c2ccccc2c2ccccc2c1=O
inactive: MDA-MB-231 > 100 µM | NCI-H522 23.7 µM | T47D 52.1 µM | NCI-H23 41 µM | SNB-19 > 100 µM | HOP-62 82.2 µM | SK-OV-3 > 100 µM | A549 > 100 µM | SF-539 > 100 µM | SF-295 48.6 µM | CAKI-1 > 100 µM | OVCAR-8 82.6 µM | SK-MEL-28 58.7 µM | HT-29 49.7 µM | SK-MEL-2 > 100 µM | SNB-75 30.9 µM | MCF7 > 100 µM | ACHN > 100 µM | MDA-MB-435 > 100 µM

O=C(NN=C1NCCCCN1)Nc1ccc(Cl)cc1
inactive: NCI-H522 > 100 µM | T47D > 100 µM | NCI-H23 > 100 µM | NCI/ADR-RES > 100 µM | SNB-19 > 100 µM | HOP-62 > 100 µM | SK-OV-3 > 100 µM | A549 > 100 µM | SF-539 > 100 µM | SF-295 > 100 µM | CAKI-1 > 100 µM | OVCAR-8 > 100 µM | SK-MEL-28 > 100 µM | HT-29 > 100 µM | SK-MEL-2 > 100 µM | SNB-75 31.6 µM | MCF7 > 100 µM | ACHN > 100 µM | MDA-MB-435 > 100 µM

Clc1ccc(/C=C/c2nc(-c3ccc(Cl)cc3)cn3c2nc2ccccc23)cc1
inactive: MDA-MB-231 > 100 µM | T47D 88.7 µM | NCI-H23 > 100 µM | NCI/ADR-RES > 100 µM | SNB-19 > 100 µM | HOP-62 > 100 µM | SK-OV-3 > 100 µM | A549 > 100 µM | SF-539 > 100 µM | SK-MEL-28 > 100 µM | HT-29 > 100 µM | SK-MEL-2 > 100 µM | MCF7 50.5 µM | ACHN > 100 µM | MDA-MB-435 > 100 µM

CC1(C)[C@@H](Cn2cnc3c(N)ncnc32)CC[C@@]1(C)CO
inactive: MDA-MB-231 > 100 µM | NCI-H522 41.3 µM | T47D > 100 µM | NCI-H23 55 µM | NCI/ADR-RES 84.5 µM | SNB-19 > 100 µM | HOP-62 > 100 µM | SK-OV-3 > 100 µM | A549 > 100 µM | SF-295 38.8 µM | CAKI-1 > 100 µM | OVCAR-8 > 100 µM | SK-MEL-28 > 100 µM | HT-29 39.4 µM | SNB-75 > 100 µM | MCF7 74.1 µM | ACHN 81.5 µM | MDA-MB-435 45.6 µM

C[C@]12CCC3c4ccc(O)cc4CC[C@H]3C1CC(=O)N(CCN1CCCC1)C2=O (stereo partly drawn)
inactive: MDA-MB-231 > 10 µM | T47D > 10 µM | NCI-H23 > 10 µM | NCI/ADR-RES > 10 µM | SNB-19 > 10 µM | HOP-62 > 10 µM | SK-OV-3 > 10 µM | A549 > 10 µM | SF-539 > 10 µM | SF-295 > 10 µM | CAKI-1 > 10 µM | OVCAR-8 > 10 µM | SK-MEL-28 > 10 µM | HT-29 > 10 µM | SK-MEL-2 > 10 µM | SNB-75 7.96 µM | MCF7 > 10 µM | ACHN > 10 µM | MDA-MB-435 > 10 µM

COc1cccc2c(NNc3ccc(Cl)cc3)c3ccc([N+](=O)[O-])cc3nc12
inactive: MDA-MB-231 12.7 µM | NCI-H522 6.07 µM | T47D 5.43 µM | NCI-H23 13.3 µM | SNB-19 14.8 µM | HOP-62 10.9 µM | SK-OV-3 15.1 µM | A549 12.6 µM | SF-539 17.7 µM | SF-295 16.2 µM | CAKI-1 2.28 µM | SK-MEL-28 39.7 µM | HT-29 14.2 µM | SK-MEL-2 13 µM | MCF7 19.2 µM | ACHN 5.68 µM | MDA-MB-435 29.7 µM

CN1CCC2(CC1)/C(=N/C1CCCCC1)NC(=S)N2c1ccccc1
inactive: MDA-MB-231 > 100 µM | T47D > 100 µM | NCI-H23 > 100 µM | NCI/ADR-RES > 100 µM | SNB-19 > 100 µM | HOP-62 > 100 µM | SK-OV-3 > 100 µM | A549 > 100 µM | SF-539 > 100 µM | SF-295 > 100 µM | OVCAR-8 > 100 µM | SK-MEL-28 > 100 µM | HT-29 > 100 µM | SNB-75 > 100 µM | MCF7 > 100 µM | ACHN 89.3 µM | MDA-MB-435 > 100 µM

CCOC(=O)C1(C#N)C(C#N)(C#N)C1(C#N)C#N
inactive: MDA-MB-231 > 100 µM | NCI-H522 > 100 µM | T47D > 100 µM | NCI-H23 > 100 µM | NCI/ADR-RES > 100 µM | SNB-19 > 100 µM | HOP-62 > 100 µM | SK-OV-3 > 100 µM | A549 > 100 µM | SF-295 > 100 µM | CAKI-1 > 100 µM | OVCAR-8 > 100 µM | SK-MEL-28 > 100 µM | HT-29 > 100 µM | SK-MEL-2 > 100 µM | MCF7 > 100 µM | ACHN > 100 µM | MDA-MB-435 > 100 µM

COc1ccc(OC)c2sc(N3C(=O)/C(=C/c4ccc(N(C)C)cc4)N=C3c3ccccc3)nc12
inactive: MDA-MB-231 > 100 µM | T47D 38.5 µM | NCI/ADR-RES > 100 µM | SNB-19 > 100 µM | HOP-62 > 100 µM | SK-OV-3 > 100 µM | A549 83.6 µM | SF-539 98.2 µM | SF-295 > 100 µM | CAKI-1 > 100 µM | OVCAR-8 78.5 µM | SK-MEL-28 > 100 µM | HT-29 61.8 µM | SK-MEL-2 36.9 µM | SNB-75 80.5 µM | MCF7 22.3 µM | ACHN 50.5 µM | MDA-MB-435 31.4 µM

CC(=O)/C(=C\c1ccc(Cl)c(Cl)c1)C(=O)C(C)CN(C)C (stereo not drawn)
inactive: MDA-MB-231 11.5 µM | T47D 2.65 µM | NCI-H23 13.4 µM | NCI/ADR-RES 13.1 µM | SNB-19 1.8 µM | HOP-62 19.1 µM | SK-OV-3 16.5 µM | A549 14.5 µM | SF-539 3.52 µM | SF-295 4.32 µM | CAKI-1 4.48 µM | OVCAR-8 1.91 µM | SK-MEL-28 6.89 µM | HT-29 5.12 µM | MCF7 3.61 µM | ACHN 5.24 µM | MDA-MB-435 3.24 µM

Cc1nc2ccc(F)cc2c2c1CCN2c1ccccc1
inactive: NCI-H522 17.8 µM | T47D 23.7 µM | NCI-H23 20 µM | NCI/ADR-RES 18.3 µM | SNB-19 32.8 µM | HOP-62 32.9 µM | A549 22.6 µM | SF-539 21 µM | SF-295 11.7 µM | OVCAR-8 20.9 µM | SK-MEL-28 16.2 µM | HT-29 8.51 µM | SNB-75 12.8 µM | MCF7 28.1 µM | ACHN 21.1 µM | MDA-MB-435 14.1 µM
